Experimental data reported in patent US11623009B2, “Bone fracture repair by targeting of agents that promote bone healing” (Purdue Research Foundation, priority 2015, dated 2023).

Experiments:
[1] = mouse, in vivo
Description: CD4 Swiss mice (30-35 g) acquired from Harlan laboratories were used for these experiments.
The study was performed on 3 groups of mice with 5 mice per group. Two weeks following fracture induction each mouse received 0.1 mCi (0.1 mL) of dose. Animals were then returned to their cages until euthanasia by CO2 overdose at the desired time point (1 h, 4 h, 24 h). Animals were imaged using MiLabs U-SPECT-II/CT. 3D reconstructions were performed using Image J software.
SPECT/CT biodistribution.

solubility in water = assay type: physicochemical; conditions: 6BIO by itself
Excerpt: The drug being attached to the unimers was a GSK3β inhibitor, 6BIO. […] By including 6BIO in the unimer design, the unimer solubilized the drug while the drug stabilized the micelle. The oxime of 6BIO was first conjugated to the carboxylic group of a 4-pentynoic acid derivative and then clicked to the azide-containing unimer by the alkyne on the 4-pentynoic acid derivative. Upon completion of the click reaction, the micelle was purified, dried, and formed micelles upon reconstitution in PBS.

[2] = system: stabilized femoral fracture; experiment: fracture healing efficacy, μCT analysis of fracture callus; assay type: in vivo, male CD4 Swiss Webster mice; conditions: 6.9 nmol/kg/dose i.v. every 3 days, 3 weeks after fracture, mean±SEM
Description: Mouse handling. All animal experiments were performed in accordance to Purdue University's IACUC approved protocols. Forty mice (10 per group) 31-35 g male CD4 Swiss Webster mice were purchased from Harlan laboratories. Mice were able to move freely throughout the experiment. At 3 weeks following fracture induction, mice were euthanized using a CO2 overdose. […] Mouse bone fracture. […] The skin incision was made over the knee. The patella was then dislocated and a small hole was made under the patella with a 25 guage needle. The needle was used to ream the intramedullary canal. A 22 guage locking nail was produced by flattening both ends was then inserted. The incision site was sutured and the femur was then fractured using a three-point bending device. […] Mouse dosing. Mice were dosed intravenously by tail vein injection every 3 days starting on the day of fracture induction. […] Mice receiving drug dosages were administered drugs at the follow dose 6.9 nmol/kg/dose in approximately 0.1 mL of PBS. PBS control mice received 0.1 mL of PBS. μCT analysis. […] The bones were scanned while immersed in PBS to prevent dehydration. Scanco μCT software was used to analyze the images for bone density, total volume (TV), relative bone volume (BV/TV), trabecular thickness (Tb.Th), and trabecular spacing (Tb.Sp). Volumes of interest included the fracture callus, and both cortical and trabecular bone between the points on the cortical bone where the bone was fractured. Statistical analysis. Statistical analyses were calculated using Prism GraphPad software. Data is presented in results as mean±standard error of the mean (SEM).

[3] = 24 h organ biodistribution of radio-iodinated micelles and 6BIO in mice with femoral fracture; assay type: in vivo, CD4 Swiss mice
Description: Radio-iodination of micelles and 6BIO. The stannylated unimers and stannylated 6BIO (0.3-0.5 μmol) were dissolved in 100 μL DMF. The solutions were transferred to Wheaton V-vials containing a solution of [^125I]NaI (5.0 mCi) in 100 μL DMF phosphate-buffered saline (PBS) (pH 7.4). Chloramine-T was added, and the reaction mixture stirred for 15 min at ambient temperature. Purification of the iodinated micelles was performed using a LH20 column eluted with MeOH. Iodinated 6BIO was dissolved in EtOAc and was washed twice with water. The solvent of all three reactions was evaporated using a stream of nitrogen, and the residue was dissolved with PBS (pH 7.4) to obtain solutions with an activity concentration of 370 kBq/100 μL. The overall radiochemical yield was ca. 10%.
Murine fracture induction. […] The skin incision was made medial parapetellar.
Injection and dissection techniques/counting for 24 h biodistribution. From the iodinated products described previously 1 uCi/mL solutions were made in sterile PBS. […] Two weeks following fracture induction, each mouse received a 0.1 μCi (0.1 mL) dose of the radio-iodinated linear micelles, branched micelle, or free drug. Animals were then placed back in their cages for 24 h. At 24 h they were sacrificed using CO2 excess. Blood was drawn from a cardiopuncture and all other organs measured were removed (lungs, liver, spleen, kidneys, fractured femur, healthy femur). The activity was counted using Packard Cobra Auto-Gamma and was normalized by dividing the count rate by the weights of each organ.
Biodistribution: Organ biodistribution at 24 h. […] Although a cleavable linker is necessary for therapy studies, it may pose a problem with biodistribution studies. At 24 h of an in vivo study, 30% of the drug may be released. In a biodistribution study, premature release would not give accurate information on how well the targeting ligand is able to remain in the fracture site. A non-degradable oxime ether linker replaced the oxime-ester linker in the micelles for biodistribution. […]

[4] = 24 h after injection, two weeks after fracture, 125I-labelled, non-degradable oxime ether linker

O=C1Nc2ccccc2C1=C1Nc2cc(Br)ccc2C1=NO [6BIO, 6′-bromoindirubin-3′-oxime]
SPECT/CT distribution at 1 h [1]: primarily found in the stool | SPECT/CT distribution at 4 h [1]: primarily contained in the bowel | SPECT/CT distribution at 24 h [1]: appears to be cleared | solubility in water (solubility in water): not soluble in water | Tb. Sp (trabecular spacing) [2]: 0.191 ± 0.009 mm | bone density of fracture callus [2]: 337.8±14.2 mg HAp/cm^3 | BV/TV (relative bone volume) ([2]; listed as Free 6BIO): 0.338 ± 0.015 | TV (callus total volume) ([2]; listed as Free 6BIO): 48.2 ± 5.8 mm^3 | Tb. Th (trabecular thickness) ([2]; listed as Free 6BIO): 0.134 ± 0.007 mm | BV/TV (relative bone volume) ([2]; listed as free 6BIO): 0.338±0.015 | TV (callus total volume) ([2]; listed as free 6BIO): 48.2±5.8 mm^3 | Tb. Th (trabecular thickness) ([2]; listed as free 6BIO): 0.134±0.007 mm | accumulation in the lungs, liver, and spleen ([3]; 24 h): high accumulation | accumulation in fractured femurs [3, 4]: 0.4±0.05% of injected dose/gram | accumulation in healthy femurs [3, 4]: 0.5±0.10% of injected dose/gram
